How the values were obtained:
wildtype Kras / hSOS1 = molecular target: T1, wildtype Kras / hSOS1 (Homo sapiens, UniProt P01116); assay: HTRF assay, wildtype Kras / SOS1 interaction; assay type: binding; details: compound nos. 102-196, general methodology of example 5; read-out: IC50 against wildtype Kras
T1 construct: made in house; host or cells: E. coli BL21 (DE3)
How it was run: (§1)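 HTRF read-out (ex 337, em 620 and 665 nm) of Ras–SOS1 equilibrium binding: Eu-anti-GST on GST-K-Ras, XL665-anti-6His on His-hSOS1. Incubation about 10 min or longer; IC50 fitted from emission ratio, compounds in duplicate at 10 μM down to 0.01 μM.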

[1] = molecular target: GST-tagged K-Ras mutant / His-tagged hSOS1 (Homo sapiens, UniProt P01116); assay: HTRF assay, K-Ras mutant / SOS1 interaction; assay type: binding; details: compound nos. 102-196, general methodology of example 5; read-out: IC50 against mutant Kras
Sequence of GST-tagged K-Ras mutant / His-tagged hSOS1 (P01116 whole entry G12D, form open): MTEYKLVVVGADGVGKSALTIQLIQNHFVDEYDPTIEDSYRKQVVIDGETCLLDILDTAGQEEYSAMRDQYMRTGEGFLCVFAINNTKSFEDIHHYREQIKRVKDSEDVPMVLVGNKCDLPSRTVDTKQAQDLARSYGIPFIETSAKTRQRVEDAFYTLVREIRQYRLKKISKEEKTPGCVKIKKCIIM
How it was run: as §1

T1 sequence (P01116 1-188 isoform P01116-2): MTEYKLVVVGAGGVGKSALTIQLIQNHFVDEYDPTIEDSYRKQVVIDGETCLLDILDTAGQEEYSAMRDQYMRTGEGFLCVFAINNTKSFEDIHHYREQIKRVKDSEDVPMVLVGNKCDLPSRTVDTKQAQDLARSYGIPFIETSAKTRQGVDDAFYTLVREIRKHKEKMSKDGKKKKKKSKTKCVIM

## CN1CCC[C@H]1COc1nc(N2CCNCC(F)(F)C2)c2cc(Cl)c(-c3cccc4nc(O)oc34)c(F)c2n1 [Compound 169, 7-(6-chloro-4-(6,6-difluoro-1,4-diazepan-1-yl)-8-fluoro-2-(((S)-1-methylpyrrolidin-2-yl)methoxy)quinazolin-7-yl)benzo[d]oxazol-2-ol]
Wildtype Kras / hSOS1
  IC50: > 0.5 µM
[1]
  IC50: > 0.5 µM

## CN1CCC[C@H]1COc1nc(N2CCNCC(F)(F)C2)c2cc(Cl)c(-c3cccc4cccc(Cl)c34)c(F)c2n1 [Compound 170, 6-chloro-7-(8-chloronaph-thalen-1-yl)-4-(6,6-difluoro-1,4-diazepan-1-yl)-8-fluoro-2-(((S)-1-methylpyrrolidin-2-yl)methoxy)quinazoline]
Wildtype Kras / hSOS1
  IC50: > 0.5 µM
[1]
  IC50: > 0.5 µM

## Cc1ccc2[nH]nc(N)c2c1-c1c(Cl)cc2c(N3CCNCC(F)(F)C3)nc(OC[C@@H]3CCCN3C)nc2c1F [Compound 171, 4-(6-chloro-4-(6,6-difluoro-1,4-diazepan-1-yl)-8-fluoro-2-(((S)-1-methylpyrrolidin-2-yl)methoxy)quinazolin-7-yl)-5-methyl-1H-indazol-3-amine]
Wildtype Kras / hSOS1
  IC50: > 0.5 µM
[1]
  IC50: > 0.5 µM

## N#CC1CCCN(c2nc(OCC34CCCN3CCC4)nc3c(F)c(-c4ccc(F)c5sc(N)nc45)c(Cl)cc23)CC1 (stereo not drawn) [Compound 172, 1-(7-(2-amino-7-fluoro-benzo[d]thiazol-4-yl)-6-chloro-8-fluoro-2-((tetra-hydro-1H-pyrrolizin-7a(5H)-yl)methoxy)-quinazolin-4-yl)azepane-4-carbonitrile]
Wildtype Kras / hSOS1
  IC50: < 0.5 µM
[1]
  IC50: < 0.5 µM

## CN1CCC[C@H]1COc1nc(N2CCCC(O)CC2)c2cc(Cl)c(-c3cccc4sc(N)nc34)c(F)c2n1 (stereo partly drawn) [Compound 173, 1-(7-(2-aminobenzo[d]-thiazol-4-yl)-6-chloro-8-fluoro-2-(((S)-1-methyl-pyrrolidin-2-yl)methoxy)-quinazolin-4-yl)azepan-4-ol]
Wildtype Kras / hSOS1
  IC50: < 0.5 µM
[1]
  IC50: < 0.5 µM

## Nc1nc2c(-c3c(Cl)cc4c(N5CCNCC(F)(F)C5)nc(OC[C@@]56CCCN5C[C@H](F)C6)nc4c3F)cccc2o1 [Compound 174, 4-(6-chloro-4-(6,6-difluoro-1,4-diazepan-1-yl)-8-fluoro-2-(((2R,7aS)-2-fluorotetra-hydro-1H-pyrrolizin-7a(5H)-yl)methoxy)quinazolin-7-yl)benzo[d]oxazol-2-amine]
Wildtype Kras / hSOS1
  IC50: < 0.5 µM
[1]
  IC50: < 0.5 µM

## Cc1ccc2cnn(C)c2c1-c1c(Cl)cc2c(N3CCNCC(F)(F)C3)nc(OC[C@@]34CCCN3C[C@H](F)C4)nc2c1F [Compound 175, 6-chloro-4-(6,6-difluoro-1,4-diazepan-1-yl)-7-(1,6-dimethyl-1H-indazol-7-yl)-8-fluoro-2-(((2R,7aS)-2-fluorotetrahydro-1H-pyrrolizin-7a(5H)-yl)meth-oxy)quinazoline]
Wildtype Kras / hSOS1
  IC50: < 0.5 µM
[1]
  IC50: < 0.5 µM

## CN1CCC[C@H]1COc1nc(N2CCNCC(F)(F)C2)c2cc(Cl)c(-c3cccc4oc(O)nc34)c(F)c2n1 [Compound 176, 4-(6-chloro-4-(6,6-difluoro-1,4-diazepan-1-yl)-8-fluoro-2-(((S)-1-methylpyrrolidin-2-yl)methoxy)quinazolin-7-yl)benzo[d]oxazol-2-ol]
Wildtype Kras / hSOS1
  IC50: > 0.5 µM
[1]
  IC50: > 0.5 µM

## CN1CCC[C@H]1COc1nc(N2CCNCC(F)(F)C2)c2cc(Cl)c(-c3cccc4sc(O)nc34)c(F)c2n1 [Compound 177, 4-(6-chloro-4-(6,6-difluoro-1,4-diazepan-1-yl)-8-fluoro-2-(((S)-1-methylpyrrolidin-2-yl)methoxy)quinazolin-7-yl)benzo[d]thiazol-2-ol]
Wildtype Kras / hSOS1
  IC50: > 0.5 µM
[1]
  IC50: > 0.5 µM

## CN1CCC[C@H]1COc1nc(N2CCNCC(F)(F)C2)c2cc(Cl)c(-c3cccc4[nH]c(N)nc34)c(F)c2n1 [Compound 178, 4-(6-chloro-4-(6,6-difluoro-1,4-diazepan-1-yl)-8-fluoro-2-(((S)-1-methylpyrrolidin-2-yl)methoxy)quinazolin-7-yl)-1H-benzo[d]imidazol-2-amine]
Wildtype Kras / hSOS1
  IC50: > 0.5 µM
[1]
  IC50: > 0.5 µM

## Cc1ccc2cnn(C)c2c1-c1c(Cl)cc2c(N3CCCCC(F)(F)C3)nc(OC[C@@]34CCCN3C[C@H](F)C4)nc2c1F [Compound 179, 6-chloro-4-(3,3-difluoro-azepan-1-yl)-7-(1,6-dimethyl-1H-indazol-7-yl)-8-fluoro-2-(((2R,7aS)-2-fluoro-tetrahydro-1H-pyrrolizin-7a(5H)-yl)-methoxy)quinazoline]
Wildtype Kras / hSOS1
  IC50: > 0.5 µM
[1]
  IC50: > 0.5 µM

## CN1CCC[C@H]1COc1nc(N2C3CCNCC2CC3)c2cc(Cl)c(-c3cccc4sc(N)nc34)c(F)c2n1 (stereo partly drawn) [Compound 180, 4-(4-(3,9-diazabicyclo-[4.2.1]nonan-9-yl)-6-chloro-8-fluoro-2-(((S)-1-methyl-pyrrolidin-2-yl)methoxy)-quinazolin-7-yl)benzo[d]-thiazol-2-amine]
Wildtype Kras / hSOS1
  IC50: > 0.5 µM
[1]
  IC50: < 0.5 µM

## CN1CCC[C@H]1COc1nc(N2CCCCC(F)C2)c2cc(Cl)c(-c3cccc4sc(N)nc34)c(F)c2n1 (stereo partly drawn) [Compound 181, 4-(6-chloro-8-fluoro-4-(3-fluoroazepan-1-yl)-2-(((S)-1-methylpyrrolidin-2-yl)-methoxy)quinazolin-7-yl)-benzo[d]thiazol-2-amine]
Wildtype Kras / hSOS1
  IC50: < 0.5 µM
[1]
  IC50: < 0.5 µM

## CN1CCC[C@H]1COc1nc(N2CCCCC(F)(F)C2)c2cc(Cl)c(-c3cccn4nc(N)nc34)c(F)c2n1 [Compound 182, (S)-8-(6-chloro-4-(3,3-difluoroazepan-1-yl)-8-fluoro-2-((1-methylpyrrol-idin-2-yl)methoxy)quin-azolin-7-yl)[1,2,4]triazolo-[1,5-a]pyridin-2-amine]
Wildtype Kras / hSOS1
  IC50: > 0.5 µM
[1]
  IC50: > 0.5 µM

## CN1CCC[C@H]1COc1nc(N2CCNCC(F)(F)C2)c2cc(Cl)c(-c3cccc4ccc(N)nc34)c(F)c2n1 [Compound 183, 8-(6-chloro-4-(6,6-difluoro-1,4-diazepan-1-yl)-8-fluoro-2-(((S)-1-methylpyrrolidin-2-yl)methoxy)quinazolin-7-yl)quinolin-2-amine]
Wildtype Kras / hSOS1
  IC50: > 0.5 µM
[1]
  IC50: > 0.5 µM

## CN1CCC[C@H]1COc1nc(N2CCNCC(F)(F)C2)c2cc(Cl)c(-c3cccc4nc(N)sc34)c(F)c2n1 [Compound 184, 7-(6-chloro-4-(6,6-difluoro-1,4-diazepan-1-yl)-8-fluoro-2-(((S)-1-methylpyrrolidin-2-yl)methoxy)quinazolin-7-yl)benzo[d]thiazol-2-amine]
Wildtype Kras / hSOS1
  IC50: > 0.5 µM
[1]
  IC50: > 0.5 µM

## CN1CCC[C@H]1COc1nc(N2CCNCC(F)(F)C2)c2cc(Cl)c(-c3cccc4oc(C#N)nc34)c(F)c2n1 [Compound 185, 4-(6-chloro-4-(6,6-difluoro-1,4-diazepan-1-yl)-8-fluoro-2-(((S)-1-methylpyrrolidin-2-yl)methoxy)quinazolin-7-yl)benzo[d]oxazole-2-carbonitrile]
Wildtype Kras / hSOS1
  IC50: > 0.5 µM
[1]
  IC50: > 0.5 µM

## CN1CCC[C@H]1COc1nc(N2CCNCC(F)(F)C2)c2cc(Cl)c(-c3cccc4nc(N)n(C)c34)c(F)c2n1 [Compound 186, 7-(6-chloro-4-(6,6-difluoro-1,4-diazepan-1-yl)-8-fluoro-2-(((S)-1-methylpyrrolidin-2-yl)methoxy)quinazolin-7-yl)-1-methyl-1H-benzo[d]-imidazol-2-amine]
Wildtype Kras / hSOS1
  IC50: > 0.5 µM
[1]
  IC50: > 0.5 µM
